Drawing on patent publication US20250333406A1, “SULFONYL CYCLIC DERIVATIVES, AND COMPOSITIONS AND METHODS THEREOF” (Lysoway Therapeutics, Inc., priority 2023, published 2025), this text covers EC50 for 27 molecules.

By EC50 is commonly meant the midpoint of the concentration-response curve.

Molecules are shown by their SMILES.

This assay deals with TFEB. The assay is described as follows: TFEB Nuclear Translocation Assay. The format is cell-based. The settings on record: read-out: EC50 of TFEB activation.
Take `CC(C)S(=O)(=O)n1ccc(S(=O)(=O)n2nc(N3CCN(c4ccc(F)cn4)CC34CC4)c3c(F)cc(F)cc32)c1` [Compound 165, 4,6-difluoro-3-(7-(5-fluoropyridin-2-yl)-4,7-diazaspiro [2.5]octan-4-yl)-1-((1-(isopropylsulfonyl)-1H-pyrrol-3-yl)sulfonyl)-1H-indazole]: the EC50 is no more than 1000 nM.

With `CC(C)S(=O)(=O)n1ccc(S(=O)(=O)n2nc(N3CCN(c4ncc(F)cn4)CC34CC4)c3c(F)cc(F)cc32)c1` [Compound 166, 4,6-difluoro-3-(7-(5-fluoropyrimidin-2-yl)-4,7-diazaspiro [2.5]octan-4-yl)-1-((1-(isopropylsulfonyl)-1H-pyrrol-3-yl)sulfonyl)-1H-indazole], the EC50 is no more than 1000 nM.

With `CC(C)S(=O)(=O)n1ccc(S(=O)(=O)n2nc(N3CCN(c4ncc(F)cn4)CC34CC4)c3c(F)cc(Cl)cc32)c1` [Compound 167, 6-chloro-4-fluoro-3-(7-(5-fluoropyrimidin-2-yl)-4,7-diazaspiro [2.5]octan-4-yl)-1-((1-(isopropylsulfonyl)-1H-pyrrol-3-yl)sulfonyl)-1H-indazole], the EC50 was no more than 1000 nM.

As for `CC(C)S(=O)(=O)n1ccc(S(=O)(=O)n2nc(N3CCN(c4ncc(F)cc4F)CC34CC4)c3c(F)cc(Cl)cc32)c1` [Compound 168, 6-chloro-3-[7-(3,5-difluoro-2-pyridyl)-4,7-diazaspiro [2.5]octan-4-yl]-4-fluoro-1-(1-isopropylsulfonylpyrrol-3-yl) sulfonyl-indazole], the EC50 is no more than 1000 nM.

As to `CN(C)S(=O)(=O)n1ccc(S(=O)(=O)n2nc(N3CCN(c4ncc(F)cn4)CC34CC4)c3c(F)cc(F)cc32)c1` [Compound 169, 3-[4,6-difluoro-3-[7-(5-fluoropyrimidin-2-yl)-4,7-diazaspiro [2.5]octan-4-yl]indazol-1-yl]sulfonyl-N, N-dimethyl-pyrrole-1-sulfonamide], the EC50 is no more than 1000 nM.

Turning to `CN(C)S(=O)(=O)n1ccc(S(=O)(=O)n2nc(N3CCN(c4ncc(F)cn4)CC34CC4)c3c(Cl)cc(F)cc32)c1` [Compound 170, 3-[4-chloro-6-fluoro-3-[7-(5-fluoropyrimidin-2-yl)-4,7-diazaspiro [2.5]octan-4-yl]indazol-1-yl]sulfonyl-N, N-dimethyl-pyrrole-1-sulfonamide], the EC50 is no more than 1000 nM.

`CC(C)(C)S(=O)(=O)n1ccc(S(=O)(=O)n2nc(N3CCN(c4ncc(F)cn4)CC34CC4)c3c(Cl)cc(F)cc32)c1` [Compound 171, 1-((1-(tert-butylsulfonyl)-1H-pyrrol-3-yl)sulfonyl)-4-chloro-6-fluoro-3-(7-(5-fluoropyrimidin-2-yl)-4,7-diazaspiro [2.5]octan-4-yl)-1H-indazole]: the EC50 is no more than 1000 nM.

Consider `CC(C)(C)S(=O)(=O)n1ccc(S(=O)(=O)n2nc(N3CCN(c4ncc(F)cn4)CC34CC4)c3c(F)cc(F)cc32)c1` [Compound 172, 1-((1-(tert-butylsulfonyl)-1H-pyrrol-3-yl)sulfonyl)-4,6-difluoro-3-(7-(5-fluoropyrimidin-2-yl)-4,7-diazaspiro [2.5]octan-4-yl)-1H-indazole], for which the EC50 is no more than 1000 nM.

For `O=S(=O)(c1ccn(S(=O)(=O)C2CC2)c1)n1nc(N2CCN(c3ncc(F)cn3)CC23CC3)c2c(Cl)cc(F)cc21` [Compound 173, 4-chloro-1-((1-(cyclopropylsulfonyl)-1H-pyrrol-3-yl)sulfonyl)-6-fluoro-3-(7-(5-fluoropyrimidin-2-yl)-4,7-diazaspiro [2.5]octan-4-yl)-1H-indazole], the EC50 is no more than 1000 nM.

Consider `O=S(=O)(c1ccn(S(=O)(=O)C2CC2)c1)n1nc(N2CCN(c3ncc(F)cn3)CC23CC3)c2c(F)cc(F)cc21` [Compound 174, 1-((1-(cyclopropylsulfonyl)-1H-pyrrol-3-yl)sulfonyl)-4,6-difluoro-3-(7-(5-fluoropyrimidin-2-yl)-4,7-diazaspiro [2.5]octan-4-yl)-1H-indazole], for which the EC50 is no more than 1000 nM.

On to `CC(C)S(=O)(=O)n1ccc(S(=O)(=O)n2nc(N3CCN(c4ccc(F)cc4)CC34CC4)c3c(Cl)cc(F)cc32)c1` [Compound 175, 4-chloro-6-fluoro-3-(7-(4-fluorophenyl)-4,7-diazaspiro [2.5]octan-4-yl)-1-((1-(isopropylsulfonyl)-1H-pyrrol-3-yl)sulfonyl)-1H-indazole], for which the EC50 was no more than 1000 nM.

For the molecule `CC(C)S(=O)(=O)n1ccc(S(=O)(=O)n2nc(N3CCN(c4ccncc4)CC34CC4)c3c(Cl)cc(F)cc32)c1` [Compound 176, 4-chloro-6-fluoro-1-(1-isopropylsulfonylpyrrol-3-yl) sulfonyl-3-[7-(4-pyridyl)-4,7-diazaspiro [2.5]octan-4-yl]indazole], the EC50 was no less than 10000 nM.

As to `CC(C)S(=O)(=O)n1ccc(S(=O)(=O)n2nc(N3CCN(c4ncc(F)cn4)C[C@@H]3C)c3c(Cl)cc(F)cc32)c1` [Compound 177, 4-chloro-6-fluoro-3-[(2S)-4-(5-fluoropyrimidin-2-yl)-2-methyl-piperazin-1-yl]-1-(1-isopropylsulfonylpyrrol-3-yl) sulfonyl-indazole], the EC50 is no more than 1000 nM.

For the molecule `CC(C)S(=O)(=O)n1ccc(S(=O)(=O)n2nc(N3CCN(c4ncc(F)cn4)C[C@H]3C)c3c(Cl)cc(F)cc32)c1` [Compound 178, 4-chloro-6-fluoro-3-[(2R)-4-(5-fluoropyrimidin-2-yl)-2-methyl-piperazin-1-yl]-1-(1-isopropylsulfonylpyrrol-3-yl) sulfonyl-indazole], the EC50 was no more than 1000 nM.

On to `CC(C)S(=O)(=O)n1ccc(S(=O)(=O)n2nc(N3CCN(c4ncc(F)cn4)CC34CCC4)c3c(Cl)cc(F)cc32)c1` [Compound 179, 4-chloro-6-fluoro-3-(8-(5-fluoropyrimidin-2-yl)-5,8-diazaspiro [3.5]nonan-5-yl)-1-((1-(isopropylsulfonyl)-1H-pyrrol-3-yl)sulfonyl)-1H-indazole], for which the EC50 was no more than 1000 nM.

On to `[2H]c1c(S(=O)(=O)n2nc(N3CCN(c4ncc(F)cn4)CC34CC4)c3c(Cl)cc(F)cc32)c([2H])n(S(=O)(=O)C(C)C)c1[2H]` [Compound 180, 4-chloro-6-fluoro-3-[7-(5-fluoropyrimidin-2-yl)-4,7-diazaspiro [2.5]octan-4-yl]-1-(2,4,5-trideuterio-1-isopropylsulfonyl-pyrrol-3-yl) sulfonyl-indazole], for which the EC50 was no more than 1000 nM.

Take `[2H]c1c(S(=O)(=O)n2nc(N3CCN(c4ncc(F)cn4)CC34CC4)c3c(Cl)cc(F)cc32)c([2H])n(S(=O)(=O)C(C)(C)Cl)c1[2H]` [Compound 181, 4-chloro-1-[1-(1-chloro-1-methyl-ethyl)sulfonyl-2,4,5-trideuterio-pyrrol-3-yl]sulfonyl-6-fluoro-3-[7-(5-fluoropyrimidin-2-yl)-4,7-diazaspiro[2.5]octan-4-yl]indazole]: the EC50 is no more than 1000 nM.

Consider `CC(C)S(=O)(=O)n1ccc(S(=O)(=O)n2nc(N3CCN(c4c(F)cccc4F)CC34CC4)c3c(Cl)cc(F)cc32)c1` [Compound 182, 4-chloro-3-(7-(2,6-difluorophenyl)-4,7-diazaspiro [2.5]octan-4-yl)-6-fluoro-1-((1-(isopropylsulfonyl)-1H-pyrrol-3-yl)sulfonyl)-1H-indazole], for which the EC50 was no more than 1000 nM.

In the case of `CC(C)S(=O)(=O)n1ccc(S(=O)(=O)n2nc(N3CCN(S(C)(=O)=O)CC34CC4)c3c(Cl)cc(F)cc32)c1` [Compound 183, 4-chloro-6-fluoro-1-((1-(isopropylsulfonyl)-1H-pyrrol-3-yl)sulfonyl)-3-(7-(methylsulfonyl)-4,7-diazaspiro [2.5]octan-4-yl)-1H-indazole], the EC50 was 1000 to 10000 nM.

On to `CC(C)S(=O)(=O)n1ccc(S(=O)(=O)n2nc(N3CCCC3C(F)(F)F)c3c(Cl)cc(F)cc32)c1` (stereo not drawn) [Compound 184, 4-chloro-6-fluoro-1-(1-isopropylsulfonylpyrrol-3-yl)sulfonyl-3-[2-(trifluoromethyl)pyrrolidin-1-yl]indazole], for which the EC50 is no more than 1000 nM.

With `CC(C)S(=O)(=O)n1ccc(S(=O)(=O)n2nc(N3CCN(c4ncc(F)cn4)CC3(C)C)c3c(Cl)cc(F)cc32)c1` [Compound 185, 4-chloro-6-fluoro-3-[4-(5-fluoropyrimidin-2-yl)-2,2-dimethyl-piperazin-1-yl]-1-(1-isopropylsulfonylpyrrol-3-yl) sulfonyl-indazole], the EC50 is no more than 1000 nM.

Turning to `CC(C)S(=O)(=O)n1ccc(S(=O)(=O)n2nc(N3CCC(N(C)C)CC34CC4)c3c(Cl)cc(F)cc32)c1` (stereo not drawn) [Compound 186, 4-[4-chloro-6-fluoro-1-(1-isopropylsulfonylpyrrol-3-yl)sulfonyl-indazol-3-yl]-N, N-dimethyl-4-azaspiro [2.5]octan-7-amine], the EC50 was in the range of 1000 to 10000 nM.

`CC(C)S(=O)(=O)n1ccc(S(=O)(=O)n2nc(N3CCC(=O)CC34CC4)c3c(Cl)cc(F)cc32)c1` [Compound 187, 4-[4-chloro-6-fluoro-1-(1-isopropylsulfonylpyrrol-3-yl)sulfonyl-indazol-3-yl]-4-azaspiro [2.5]octan-7-one]: the EC50 was no more than 1000 nM.

In the case of `CC(C)S(=O)(=O)n1ccc(S(=O)(=O)n2nc(N3CCCC34CC4)c3c(Cl)cc(F)cc32)c1` [Compound 188, 3-(4-azaspiro [2.4]heptan-4-yl)-4-chloro-6-fluoro-1-(1-isopropylsulfonylpyrrol-3-yl) sulfonyl-indazole], the EC50 was no more than 1000 nM.

For the molecule `CC(C)S(=O)(=O)n1ccc(S(=O)(=O)n2nc(N3CCC34CCC4)c3c(Cl)cc(F)cc32)c1` [Compound 189, 3-(1-azaspiro [3.3]heptan-1-yl)-4-chloro-6-fluoro-1-(1-isopropylsulfonylpyrrol-3-yl) sulfonyl-indazole], the EC50 was no more than 1000 nM.

As to `CC(C)S(=O)(=O)n1ccc(S(=O)(=O)n2nc(N3CCOCC34CC4)c3c(Cl)cc(F)cc32)c1` [Compound 190, 4-[4-chloro-6-fluoro-1-(1-isopropylsulfonylpyrrol-3-yl)sulfonyl-indazol-3-yl]-7-oxa-4-azaspiro [2.5]octane], the EC50 is no more than 1000 nM.

Regarding `CC(C)S(=O)(=O)n1ccc(S(=O)(=O)n2nc(N3CCC(F)(F)CC34CC4)c3c(Cl)cc(F)cc32)c1` [Compound 191, 4-chloro-3-(7,7-difluoro-4-azaspiro [2.5]octan-4-yl)-6-fluoro-1-(1-isopropylsulfonylpyrrol-3-yl) sulfonyl-indazole], the EC50 was no more than 1000 nM.
